Experiments:
Assay in all cases: DTNB spectrophotometric assay, nonlinear regression
Format in all cases: biochemical, Brassica juncea
Conditions in all cases: 30 °C
Bju.IPMS1-B1 = system: Bju.IPMS1-B1
Bju.IPMS1-A1 = system: Bju.IPMS1-A1
Bju.IPMS1-A2 = system: Bju.IPMS1-A2
Bju.IPMS1-B2 = system: Bju.IPMS1-B2

Row | Km (Bju.IPMS1-B1; 0.5 mM acetyl-CoA) [µM] | Km (Bju.IPMS1-A1; 0.5 mM acetyl-CoA) [µM] | Km (Bju.IPMS1-A2; 0.5 mM acetyl-CoA) [µM] | Km (Bju.IPMS1-B2; 0.5 mM acetyl-CoA) [µM] | Km (Bju.IPMS1-B1; 1 mM 2-oxoisovalerate) [µM] | Km (Bju.IPMS1-A1; 1 mM 2-oxoisovalerate) [µM] | Km (Bju.IPMS1-A2; 1 mM 2-oxoisovalerate) [µM] | Km (Bju.IPMS1-B2; 1 mM 2-oxoisovalerate) [µM] | Structure (SMILES)
1 | 217 ± 67.2 | 158 ± 35.4 | 144 ± 40.9 | 231 ± 47.1 | – | – | – | – | CC(C)C(=O)C(=O)O [2-oxoisovalerate, 3-methyl-2-oxobutanoate]
2 | – | – | – | – | 1260 ± 369 | 770 ± 211 | 406 ± 75.9 | 532 ± 91.9 | CC(=O)SCCNC(=O)CCNC(=O)[C@H](O)C(C)(C)COP(=O)(O)OP(=O)(O)OC[C@H]1O[C@@H](n2cnc3c(N)ncnc32)[C@H](O)[C@@H]1OP(=O)(O)O [acetyl-CoA]
